According to patent publication US20240132478A1, “COCRYSTAL” (Syndesi Therapeutics SA, priority 2020, published 2024):
Read-outs that look alike come from different tables or passages of the source.

Columns and labels:
Type in all cases: physicochemical
[1] = Storage stability at elevated temperature and humidity (XRPD and HPLC purity after storage); settings: for Storage: XRPD pattern: 40° C./75% RH, after 7 days; for Stability at 25° C./97% RH and 40° C./75% RH: XRPD after storage; for Stability to increased temperature and humidity: in words, increased temperature (40° C.) and high humidity; for XRPD after storage at 40° C./75% RH: 7 days
Experimental: Bruker AXS D8 Advance: XRPD diffractograms were collected on a Bruker D8 diffractometer using Cu Kα radiation (40 kV, 40 mA) and a θ-2θ goniometer fitted with a Ge monochromator. The incident beam passes through a 2.0 mm divergence slit followed by a 0.2 mm anti-scatter slit and knife edge. The diffracted beam passes through an 8.0 mm receiving slit with 2.5° Soller slits followed by the Lynxeye Detector. The software used for data collection and analysis was Diffrac Plus XRD Commander and Diffrac Plus EVA respectively. Samples were run under ambient conditions as flat plate specimens using powder as received. The sample was prepared on a polished, zero-background (510) silicon wafer by gently pressing onto the flat surface or packed into a cut cavity. The sample was rotated in its own plane. The details of the data collection method are: • Angular range: 2 to 42° 2θ • Step size: 0.05° 2θ • Collection time: 0.5 s/step (total collection time: 6.40 min)
Purity analysis was performed on an Agilent Ip 100/Infinity 111260 series system equipped with a diode array detector and using OpenLAB software. The full method details are provided below:
The three potential cocrystals were characterised using DSC, 1H NMR, TGA and by evaluating their stability with XRPD after 7 or 8 days of being stored at 40° C./75% RH. All three cocrystals were unchanged by XRPD after storage at 40° C./75% RH and none had significant amounts of solvent present (Table 28). The 4 HBA cocrystal appeared to have a similar melt to the starting material (ca. 85° C.). […] All initially appeared to have a 1:1 stoichiometry. […]

[2] = Gravimetric Vapour Sorption (GVS) moisture sorption isotherm; settings: for GVS reversible water uptake: between 0-90% RH; for Hygroscopicity: in words, by GVS
Experimental: Sorption isotherms were obtained using a SMS DVS Intrinsic moisture sorption analyser, controlled by DVS Intrinsic Control software. The sample temperature was maintained at 25° C. by the instrument controls. The humidity was controlled by mixing streams of dry and wet nitrogen, with a total flow rate of 200 ml/min. The relative humidity was measured by a calibrated Rotronic probe (dynamic range of 1.0-100% RH), located near the sample. The weight change, (mass relaxation) of the sample as a function of % RH was constantly monitored by a microbalance (accuracy ±0.005 mg). Typically, 5-30 mg of sample was placed in a tared mesh stainless steel basket under ambient conditions. The sample was loaded and unloaded at 40% RH and 25° C. (typical room conditions). A moisture sorption isotherm was performed as outlined below (2 scans per complete cycle). The standard isotherm was performed at 25° C. at 10% RH intervals over a 0-90% RH range. Typically, a double cycle (4 scans) was carried out. Data analysis was carried out within Microsoft Excel using the DVS Analysis Suite.
The sample was recovered after completion of the isotherm and re-analysed by XRPD.

[3] = Variable temperature XRPD (VT-XRPD)
Experimental: Non-ambient conditions: For variable temperature (VT-XRPD) experiments samples were mounted on an Anton Paar DHS 900 hot stage at ambient conditions. The sample was then heated to the appropriate temperature at 10° C./min and subsequently held isothermally for 2 minutes before data collection. Samples were prepared and analysed on a silicon wafer mounted to the hot stage using a heat-conducting paste.

[4] = Storage stability at elevated temperature and humidity (XRPD and HPLC purity after storage)
[5] = Differential Scanning Calorimetry (DSC); settings: for Melting point (onset): * = multiple thermal events; for DSC Endotherm, enthalpy / DSC Endotherm, onset temp: single endotherm; for DSC Endotherm, onset temp: followed by exothermic event
Experimental: TA Instruments Q2000: DSC data were collected on a TA Instruments Q2000 equipped with a 50 position auto sampler. Typically, 0.5 3 mg of each sample, in a pin-holed aluminium pan, was heated at 10° C./min from 25° C. to 235° C. A purge of dry nitrogen at 50 mlmL/min was maintained over the sample. The instrument control software was Advantage for Q Series and Thermal Advantage and the data were analysed using Universal Analysis or TRIOS.
TA Instruments Discovery DSC: DSC data were also collected on a TA Instruments Discovery DSC equipped with a 50 position auto-sampler. Typically, 0.5 3 mg of each sample, in a pin-holed aluminium pan, was heated at 10° C./min from 25° C. to 235° C. A purge of dry nitrogen at 50 mlmL/min was maintained over the sample. The instrument control software was TRIOS and the data were analysed using TRIOS or Universal Analysis.

[6] = Thermo-Gravimetric Analysis (TGA)
Experimental: TA Instruments Discovery TGA: TGA data were collected on a TA Instruments Discovery TGA, equipped with a 25 position auto-sampler. Typically, 5 10 mg of each sample was loaded onto a pre-tared aluminium DSC pan and heated at 10° C./min from ambient temperature to 350° C. A nitrogen purge at 25 mlmL/min was maintained over the sample. The instrument control software was TRIOS and the data were analysed using Universal Analysis.

| Structure (SMILES) | Storage: XRPD pattern [1] | Stability at 25° C./97% RH and 40° C./75% RH [1] | Stability to increased temperature and humidity [1] | Hygroscopicity (GVS) [2] | XRPD post-GVS [2] | GVS reversible water uptake [2] | Hygroscopicity [2] | VT-XRPD pattern on heating [3] | VT-XRPD temperature at which sample melted [3] | Storage: XRPD pattern ([4]; 25° C./97% RH, after 7 days) | Melting point (onset) [5] | DSC Endotherm, enthalpy [5] [J/g] | DSC Endotherm, onset temp [5] [°C] | XRPD after storage at 40° C./75% RH [1] | further results |
| --- | --- | --- | --- | --- | --- | --- | --- | --- | --- | --- | --- | --- | --- | --- | --- |
| O=C(O)c1ccc(O)cc1O.O=C(O)c1ccc(O)cc1O.O=C1C[C@H](c2cc(F)c(F)c(F)c2)CN1Cn1ncnc1Cl [2,4-DHBA Pattern 1] | XRPD pattern unchanged after 7 days | Stable, | remains stable | Slightly hygroscopic | Some changes by XRPD post-GVS | 0.53% w/w reversible water uptake between 0-90% | only slightly hygroscopic | XRPD pattern remained unchanged until the sample | melted at ca. 139 °C | XRPD pattern unchanged after 7 days | 138.2 °C | 91 | 138.2 |  | XRPD post-GVS ([2]; sample re-analysed by XRPD after isotherm): slight changes; Storage: Purity ([4]; 25° C./97% RH, after ca 1 month on storage): Purity: 99.7% (after ca 1 month on storage); Storage: Purity ([4]; 40° C./75% RH, after ca 1 month on storage): Purity: 97.9% (after ca 1 month on storage); XRPD after storage at 40° C./75% RH ([4]; 8 days): 8 days: Unchanged; TGA mass loss prior to dissociation/degradation [6]: No significant mass loss prior to dissociation/; TGA w/w loss on dissociation/degradation ([6]; followed by continual decomposition): degradation then 43.4% w/w loss followed by continual |
| O=C(O)c1cc(O)cc(O)c1.O=C1C[C@H](c2cc(F)c(F)c(F)c2)CN1Cn1ncnc1Cl [3,5-DHBA Pattern 1] | XRPD Pattern unchanged after 7 days |  | remains stable | Slightly hygroscopic | Unchanged by XRPD post-GVS | ~0.2% w/w reversible water uptake | only slightly hygroscopic | XRPD pattern remained unchanged until | it melted at ca. 113 °C | XRPD Pattern unchanged after 7 days |  | 85 | 113.3 | 7 days: Unchanged | Storage: Purity ([4]; 25° C./97% RH, 7 days): Purity: 99.9%; Storage: Purity ([4]; 40° C./75% RH, 7 days): Purity: 99.7%; TGA onset of dissociation/decomposition [6]: ca. 120 °C |
| O=C(O)c1ccc(O)cc1.O=C1C[C@H](c2cc(F)c(F)c(F)c2)CN1Cn1ncnc1Cl [4-HBA Pattern 1] |  | Stable, | stable | Non-hygroscopic | RH, unchanged by XRPD post-GVS | ~0.11% w/w reversible water uptake between 0-90% | non-hygroscopic | XRPD pattern changes slightly on heating between 60 °C |  |  | 87.7° C.* |  |  | 7 days: Unchanged | Storage: Purity ([4]; 25° C./97% RH, 11 days): Purity: 99.9%; Storage: XRPD pattern ([4]; 25° C./97% RH, after 11 days): XRPD pattern unchanged after 11 days; Storage: Purity ([4]; 40° C./75% RH, 11 days): Purity: 99.7%; Storage: XRPD pattern ([4]; 40° C./75% RH, after 11 days): XRPD pattern unchanged after 11 days; DSC 1st Endotherm, enthalpy [5]: 8 J/g; DSC 1st Endotherm, onset temp [5]: 70.6 °C; DSC 2nd Endotherm, enthalpy [5]: 56 J/g; DSC 2nd Endotherm, onset temp [5]: 87.7 °C; DSC Broad exotherm, enthalpy [5]: 19 J/g; DSC Broad exotherm, onset temp [5]: 110 °C; TGA w/w loss ([6]; from 114-268° C., followed by continual decomposition): 29.0% w/w loss from 114-268 °C |
| O=C(O)c1cc(O)cc(O)c1.O=C1C[C@@H](c2cc(F)c(F)c(F)c2)CN1Cn1ncnc1Cl [ARP-1725-71-02C] |  | Stable, |  |  |  |  |  |  |  |  | 113.3 °C |  |  |  |  |
